# Legend:
# [1] = system: castration resistant metastatic prostate cancer; experiment: Randomized clinical study of cabazitaxel vs mitoxantrone, each with prednisone or prednisolone: efficacy; type: in vivo, human; conditions: intention-to-treat
# Method: (§1) A clinical study was performed wherein patients received either treatment with cabazitaxel or the reference treatment based on mitoxantrone each combined with prednisone or prednisolone.
# (§2) More specifically, patients over 18 years of age with metastatic castration resistant metastatic prostate cancer either measurable by RECIST criteria or non-measurable disease with rising PSA levels or appearance of new lesions, ECOG (Eastern Cooperative Oncology Group) performance stage 0-2, and adequate organ function (patients had to have neutrophils >1,500 cells/mm^3, platelets >100,000 cells/mm^3, hemoglobin >10 g/dL, creatinine <1.5×upper limit of normal (ULN), total bilirubin <1×ULN, AST <1.5×ULN, and ALT <1.5×ULN) who had had prior hormone therapy, chemotherapy, and radiotherapy, but had progressive during or after docetaxel treatment (cumulative dose ≥225 mg/m^2) were randomized to 10 mg/day of prednisone with either mitoxantrone 12 mg/m^2 or cabazitaxel 25 mg/m^2, both administered every 3 weeks.
# (§3) Patients with a history of congestive heart failure, or myocardial infarction within the last 6 months, or patients with uncontrolled cardiac arrhythmias, angina pectoris, and/or hypertension were not included in the study.
# (§4) 720 patients were planned to be included in the clinical study: 360 in each cabazitaxel+prednisone and mitoxantrone+prednisone group. Seven hundred and fifty-five patients (755) (median age 68; 84% white) were actually enrolled, 378 in the cabazitaxel and prednisone/prednisolone group and 377 in the mitoxantrone and prednisone/prednisolone group. The maximal number of treatment cycles was 10 for cabazitaxel and 10 for mitoxantrone. The median number of treatment cycles was 6 for cabazitaxel and 4 for mitoxantrone. The median prior dose of docetaxel treatment was 576 mg/m^2 for the cabazitaxel group and 529 mg/m^2 for the mitoxantrone group. Median follow-up was 12.8 months.
# The measurements of the results are performed via the same tests as at inclusion. MRI and spiral computed tomographic (CT) scans are preferably used.
# The results are evaluated according to the following criteria (cf RECIST guideline): • overall survival (OS): the time from inclusion to the study to the date of death complete response (CR): disappearance of the lesions • partial response (PR): at least 30% reduction of the largest diameter of the lesion progression (PD): at least 20% increase in the sum of the largest diameter of the lesion or appearance of one or more new lesions • stable disease (SD): reduction of the tumour insufficient to be included in PR and increase of the tumour insufficient to be included in PD.
# The confirmations of the measurements are made at least 4 weeks after the response criterion has been established for the first time.
# The progression-free survival (PFS) is the time from inclusion in the study and the date of progression or death when the progression is either an increase of the PSA, or of the tumour, or of the pain.
# [2] = Same clinical study: adverse reactions, hematologic abnormalities, treatment discontinuation, delays and dose reductions; type: in vivo, human
# Method: as §1, §2, §3, §4
# [3] = system: cancers that are resistant to hormone deprivation; conditions: docetaxel in combination with estramustine or prednisone; cited from earlier work
# [4] = human, in vivo, listed as Mitoxantrone
# [5] = percent of patients, laboratory values, cabazitaxel: n = 369, mitoxantrone: n = 370
smiles,measurement,setting,value
"O=C1c2c(O)ccc(O)c2C(=O)c2c(NCCNCCO)ccc(NCCNCCO)c21 [mitoxantrone, reference compound]","Discontinuation of study treatment for disease progression, (%)",[1],(70.8) %
same,"Discontinuation of study treatment for disease progression, no.","[1]; N = 377 mitoxantrone, N = 378 cabazitaxel",267
same,Overall survival Median,[1]; 25 mg/m^2 cabazitaxel or 12 mg/m^2 mitoxantrone every 3 weeks with prednisone,12.7 months
same,PFS Median,"[1]; earliest progression in tumor, PSA or pain",1.4 months
same,Rates of febrile neutropenia,[2]; Example 1,1.3%
same,"Dose reductions, cycles (%)","[2]; human, in vivo",5.1%
same,"Dose reductions, no. of cycles","[2]; human, in vivo",88
same,"Treatment delays >9 days, cycles (%)","[2]; human, in vivo",1.6%
same,"Treatment delays >9 days, no. of cycles","[2]; human, in vivo",28
same,"Treatment delays ≤9 days, cycles (%)","[2]; human, in vivo",6.3%
same,"Treatment delays ≤9 days, no. of cycles","[2]; human, in vivo",110
same,"Dose reductions, cycles (%)",[2]; [4],(5.1) %
same,"Treatment delays >9 days, cycles (%)",[2]; [4],(1.6) %
same,"Treatment delays ≤9 days, cycles (%)",[2]; [4],(6.3) %
same,"Discontinuation of study treatment for adverse event, (%)",[2]; intention-to-treat,(8.5) %
same,"Discontinuation of study treatment for adverse event, no.","[2]; intention-to-treat, N = 377 mitoxantrone, N = 378 cabazitaxel",32
same,"Abdominal Pain Grade 1-4, (%)",[2]; percent of patients of n = 371,(6%)
same,"Alopecia Grade 1-4, (%)",[2]; percent of patients of n = 371,(5%)
same,"Anorexia Grade 1-4, (%)",[2]; percent of patients of n = 371,(11%)
same,"Anorexia Grade 3-4, (%)",[2]; percent of patients of n = 371,(<1%)
same,"Arrhythmia Grade 1-4, (%)",[2]; percent of patients of n = 371,(2%)
same,"Arrhythmia Grade 3-4, (%)",[2]; percent of patients of n = 371,(<1%)
same,"Arthralgia Grade 1-4, (%)",[2]; percent of patients of n = 371,(8%)
same,"Arthralgia Grade 3-4, (%)",[2]; percent of patients of n = 371,(1%)
same,"Asthenia Grade 1-4, (%)",[2]; percent of patients of n = 371,(12%)
same,"Asthenia Grade 3-4, (%)",[2]; percent of patients of n = 371,(2%)
same,"Back Pain Grade 1-4, (%)",[2]; percent of patients of n = 371,(12%)
same,"Back Pain Grade 3-4, (%)",[2]; percent of patients of n = 371,(3%)
same,"Bone Pain Grade 1-4, (%)",[2]; percent of patients of n = 371,(5%)
same,"Bone Pain Grade 3-4, (%)",[2]; percent of patients of n = 371,(2%)
same,"Constipation Grade 1-4, (%)",[2]; percent of patients of n = 371,(15%)
same,"Constipation Grade 3-4, (%)",[2]; percent of patients of n = 371,(<1%)
same,"Cough Grade 1-4, (%)",[2]; percent of patients of n = 371,(6%)
same,"Dehydration Grade 1-4, (%)",[2]; percent of patients of n = 371,(3%)
same,"Dehydration Grade 3-4, (%)",[2]; percent of patients of n = 371,(<1%)
same,"Diarrhea Grade 1-4, (%)",[2]; percent of patients of n = 371,(11%)
same,"Diarrhea Grade 3-4, (%)",[2]; percent of patients of n = 371,(<1%)
same,"Dizziness Grade 1-4, (%)",[2]; percent of patients of n = 371,(6%)
same,"Dizziness Grade 3-4, (%)",[2]; percent of patients of n = 371,(<1%)
same,"Dysgeusia Grade 1-4, (%)",[2]; percent of patients of n = 371,(4%)
same,"Dyspepsia Grade 1-4, (%)",[2]; percent of patients of n = 371,(2%)
same,"Dyspnea Grade 1-4, (%)",[2]; percent of patients of n = 371,(4%)
same,"Dyspnea Grade 3-4, (%)",[2]; percent of patients of n = 371,(<1%)
same,"Dysuria Grade 1-4, (%)",[2]; percent of patients of n = 371,(1%)
same,"Fatigue Grade 1-4, (%)",[2]; percent of patients of n = 371,(27%)
same,"Fatigue Grade 3-4, (%)",[2]; percent of patients of n = 371,(3%)
same,"Febrile Neutropenia Grade 1-4, (%)",[2]; percent of patients of n = 371,(1%)
same,"Febrile Neutropenia Grade 3-4, (%)",[2]; percent of patients of n = 371,(1%)
same,"Headache Grade 1-4, (%)",[2]; percent of patients of n = 371,(5%)
same,"Hematuria Grade 1-4, (%)",[2]; percent of patients of n = 371,(4%)
same,"Hematuria Grade 3-4, (%)",[2]; percent of patients of n = 371,(<1%)
same,"Hypotension Grade 1-4, (%)",[2]; percent of patients of n = 371,(2%)
same,"Hypotension Grade 3-4, (%)",[2]; percent of patients of n = 371,(<1%)
same,"Mucosal Inflammation Grade 1-4, (%)",[2]; percent of patients of n = 371,(3%)
same,"Mucosal Inflammation Grade 3-4, (%)",[2]; percent of patients of n = 371,(<1%)
same,"Muscle Spasms Grade 1-4, (%)",[2]; percent of patients of n = 371,(3%)
same,"Musculoskeletal Pain Grade 1-4, (%)",[2]; percent of patients of n = 371,(5%)
same,"Musculoskeletal Pain Grade 3-4, (%)",[2]; percent of patients of n = 371,(<1%)
same,"Nausea Grade 1-4, (%)",[2]; percent of patients of n = 371,(23%)
same,"Nausea Grade 3-4, (%)",[2]; percent of patients of n = 371,(<1%)
same,"Pain Grade 1-4, (%)",[2]; percent of patients of n = 371,(5%)
same,"Pain Grade 3-4, (%)",[2]; percent of patients of n = 371,(2%)
same,"Pain in Extremity Grade 1-4, (%)",[2]; percent of patients of n = 371,(7%)
same,"Pain in Extremity Grade 3-4, (%)",[2]; percent of patients of n = 371,(1%)
same,"Peripheral Edema Grade 1-4, (%)",[2]; percent of patients of n = 371,(9%)
same,"Peripheral Edema Grade 3-4, (%)",[2]; percent of patients of n = 371,(<1%)
same,"Peripheral Neuropathy Grade 1-4, (%)",[2]; percent of patients of n = 371,(3.2%)
same,"Peripheral Neuropathy Grade 3-4, (%)",[2]; percent of patients of n = 371,(<1%)
same,"Pneumonia Grade 1-4, (%)",[2]; percent of patients of n = 371,(1%)
same,"Pneumonia Grade 3-4, (%)",[2]; percent of patients of n = 371,(<1%)
same,"Pyrexia Grade 1-4, (%)",[2]; percent of patients of n = 371,(6%)
same,"Pyrexia Grade 3-4, (%)",[2]; percent of patients of n = 371,(<1%)
same,"Urinary Tract Infection Grade 1-4, (%)",[2]; percent of patients of n = 371,(3%)
same,"Urinary Tract Infection Grade 3-4, (%)",[2]; percent of patients of n = 371,(1%)
same,"Vomiting Grade 1-4, (%)",[2]; percent of patients of n = 371,(10%)
same,"Weight Decreased Grade 1-4, (%)",[2]; percent of patients of n = 371,(8%)
same,"Weight Decreased Grade 3-4, (%)",[2]; percent of patients of n = 371,(<1%)
same,"Anemia Grade 1-4, (%)",[2]; [5],(82%)
same,"Anemia Grade 3-4, (%)",[2]; [5],(5%)
same,"Leukopenia Grade 1-4, (%)",[2]; [5],(93%)
same,"Leukopenia Grade 3-4, (%)",[2]; [5],(42%)
same,"Neutropenia Grade 1-4, (%)",[2]; [5],(87%)
same,"Neutropenia Grade 3-4, (%)",[2]; [5],58.0%
same,"Thrombocytopenia Grade 1-4, (%)",[2]; [5],(43%)
same,"Thrombocytopenia Grade 3-4, (%)",[2]; [5],(2%)
same,"Neutropenia Grade 3-4, (%)","[2]; percent of patients, laboratory values, cabazitaxel: n = 369, mitoxantrone: n = 370, listed as Mitoxantrone",(58%)
CC(=O)O[C@@]12CO[C@@H]1C[C@H](O)[C@@]1(C)C(=O)[C@H](O)C3=C(C)[C@@H](OC(=O)[C@H](O)[C@@H](NC(=O)OC(C)(C)C)c4ccccc4)C[C@@](O)([C@@H](OC(=O)c4ccccc4)[C@H]21)C3(C)C [docetaxel],improvement of survival,[3],2.4 months

# Source: US12453712B2, “Antitumoral use of cabazitaxel” (Sanofi Mature IP, priority 2009, dated 2025)
